Here are results for 58 molecules from patent US12116358B2, “Substituted indoles and methods of use thereof” (EPIZYME, INC., priority 2018, dated 2024).

Structures are written as SMILES. pIC50: −log10 of the molar value.

The target in this experiment is T1, SETD2(1434-1711) (Homo sapiens, UniProt Q9BYW2).
T1 construct: SETD2 (1434-1711) Assay; catalogue N/A
T1 sequence (Q9BYW2 1434-1711): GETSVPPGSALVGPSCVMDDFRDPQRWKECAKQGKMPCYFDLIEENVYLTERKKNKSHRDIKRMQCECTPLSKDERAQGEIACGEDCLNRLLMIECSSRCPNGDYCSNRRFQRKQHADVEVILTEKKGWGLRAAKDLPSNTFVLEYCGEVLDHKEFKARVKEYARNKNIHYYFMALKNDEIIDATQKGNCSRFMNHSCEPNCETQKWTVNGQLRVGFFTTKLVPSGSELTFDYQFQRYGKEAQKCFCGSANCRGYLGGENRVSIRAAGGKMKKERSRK
The experiment is described as follows: SETD2 (1434-1711) assay. The experiment is classed as biochemical. The conditions noted are these: read-out: SETD2 (1434-1711).
On to `Cc1c(C(=O)N[C@H]2CC[C@H](NC(=O)CCN)CC2)[nH]c2c(C)cccc12` [compound 655], for which the pIC50 is 4.60. The same measure for `Cc1cccc2cc(C(=O)N[C@@H]3C[C@@H]4CC[C@H]3CN4C(=O)CCCN)[nH]c12` [compound 657]: 4.59; for `COC(=O)C[C@@H](NC(=O)c1cc2cccc(C)c2[nH]1)c1cccnc1` [compound 658]: 4.57. For `COC(=O)CC(NC(=O)c1cc2cccc(C)c2[nH]1)c1cccc(OC)c1` (stereo not shown) [compound 659], the pIC50 is 4.56.

Regarding `Cc1cccc2cc(C(=O)NC(c3ccccn3)C3CC3)[nH]c12` (stereo not shown) [compound 660], the pIC50 was 4.55. To `Cc1cccc2cc(C(=O)N[C@H]3CC[C@H](NS(=O)(=O)CCN)CC3)[nH]c12` [compound 661] belongs 4.54. On to `Cc1cccc2cc(C(=O)N[C@H]3CC[C@@H](CO)CC3)[nH]c12` [compound 662], for which the pIC50 was 4.53. To `Cc1cccc2cc(C(=O)NC3CCN(S(=O)(=O)CCCN)CC3)[nH]c12` [compound 663] belongs 4.50. `Cc1cccc2cc(C(=O)NC3CCCN(C(=O)CCCN)C3)[nH]c12` (stereo not shown) [compound 664]: the pIC50 was 4.50.

Consider `Cc1cccc2cc(C(=O)Nc3cncnc3)[nH]c12` [compound 665], for which the pIC50 is 4.49. To `COC(=O)C[C@@H](NC(=O)c1cc2cccc(C)c2[nH]1)c1ccccc1` [compound 666] belongs less than 4.48. As to `Cc1cccc2cc(C(=O)NC(c3cccc(CC(N)=O)n3)C3CC3)[nH]c12` (stereo not shown) [compound 667], the pIC50 is 4.46. For `CCC(NC(=O)c1cc2cccc(C)c2[nH]1)c1nc(C)no1` (stereo not shown) [compound 668], the pIC50 was 4.46. To `COC(=O)CC(NC(=O)c1cc2cccc(C)c2[nH]1)c1cccc(Br)c1` (stereo not shown) [compound 669] belongs 4.45. For `CC(=O)N1CCC(NC(=O)c2cc3cccc(C)c3[nH]2)CC1` [compound 670], the pIC50 was 4.45. To `COC(=O)CC(NC(=O)c1cc2cccc(C)c2[nH]1)c1cccnc1` (stereo not shown) [compound 671] belongs 4.45; to `Cc1cccc2cc(C(=O)N[C@@H]3C[C@H]4CC[C@@H]3CN4C(=O)CCN)[nH]c12` [compound 672], 4.44. The same measure for `Cc1cccc2cc(C(=O)Nc3ccccn3)[nH]c12` [compound 673]: 4.44; for `Cc1cccc2cc(C(=O)NCc3cccc(CN4CCCC4)c3)[nH]c12` [compound 674]: 4.43; for `CCOC(=O)C(NC(=O)c1cc2cccc(C)c2[nH]1)C(F)(F)F` (stereo not shown) [compound 675]: 4.42.

For the molecule `COC(=O)C[C@H](NC(=O)c1cc2cccc(C)c2[nH]1)c1cccnc1` [compound 676], the pIC50 was 4.42. For the molecule `COC(=O)CC(NC(=O)c1cc2cccc(C)c2[nH]1)c1ccccc1C` (stereo not shown) [compound 677], the pIC50 was 4.40.

Regarding `Cc1cccc2cc(C(=O)NCC(O)C(F)(F)F)[nH]c12` (stereo not shown) [compound 678], the pIC50 was 4.40. The same measure for `Cc1cccc2cc(C(=O)Nc3ccccc3C3CCC(=O)N3)[nH]c12` (stereo not shown) [compound 679]: 4.37; for `Cc1cccc2cc(C(=O)NC(c3ncccn3)C3CC3)[nH]c12` (stereo not shown) [compound 680]: 4.35. `COc1cc(OC)cc(C(O)CNC(=O)c2cc3cccc(C)c3[nH]2)c1` (stereo not shown) [compound 681]: the pIC50 was 4.35.

For `CNC(=O)CC(NC(=O)c1cc2cccc(C)c2[nH]1)c1ncccc1C` (stereo not shown) [compound 682], the pIC50 was 4.34.

With `COC(=O)C[C@H](NC(=O)c1cc2cccc(C)c2[nH]1)c1ccc(Cl)cc1` [compound 683], the pIC50 was 4.32.

`Cc1cccc2cc(C(=O)N3CCc4ccccc4C3)[nH]c12` [compound 684]: the pIC50 is less than 4.30.

On to `Cc1cccc2cc(C(=O)NC3C4CCC3CC(NC(=O)CCN)C4)[nH]c12` (stereo not shown) [compound 685], for which the pIC50 is 4.30.

Turning to `Cc1ccccc1C(O)CNC(=O)c1cc2cccc(C)c2[nH]1` (stereo not shown) [compound 686], the pIC50 is 4.29. To `Cc1cccc2cc(C(=O)N[C@@H](c3ccccc3)C(F)(F)F)[nH]c12` [compound 687] belongs 4.29; to `Cc1csc(C(C)NC(=O)c2cc3cccc(C)c3[nH]2)n1` (stereo not shown) [compound 688], 4.28.

Turning to `Cc1cccc2cc(C(=O)NC(c3cccnc3)C3CC3)[nH]c12` (stereo not shown) [compound 689], the pIC50 is 4.27. To `COC(=O)C[C@H](NC(=O)c1cc2cccc(C)c2[nH]1)c1ccccc1` [compound 690] belongs 4.25; to `Cc1cccc2cc(C(=O)Nc3ccc(CN4CCOCC4)cc3)[nH]c12` [compound 691], 4.25; to `Cc1cccc2cc(C(=O)N[C@@H](CO)Cc3ccccc3)[nH]c12` [compound 692], 4.24. Turning to `Cc1cccc2cc(C(=O)NCc3ccnn3C)[nH]c12` [compound 693], the pIC50 was 4.23.

For the molecule `COC(=O)C[C@@H](NC(=O)c1cc2cccc(C)c2[nH]1)C(=O)OC` [compound 694], the pIC50 is 4.21. Consider `COc1cccc(C(O)CNC(=O)c2cc3cccc(C)c3[nH]2)c1` (stereo not shown) [compound 695], for which the pIC50 is 4.21.

In the case of `NCCC(=O)N[C@H]1CC[C@H](NC(=O)c2cc3cccc(Cl)c3[nH]2)CC1` [compound 697], the pIC50 was 4.20. The same measure for `CC(=O)N[C@H]1CC[C@H](NC(=O)c2cc3cccc(C)c3[nH]2)CC1` [compound 698]: 4.20; for `Cc1cccc2cc(C(=O)NC3Cc4ccccc4NC3=O)[nH]c12` (stereo not shown) [compound 699]: 4.18. Turning to `CCOC(=O)CC(NC(=O)c1cc2cccc(C)c2[nH]1)c1ccncc1` (stereo not shown) [compound 700], the pIC50 is 4.16.

Regarding `COC(=O)C(NC(=O)c1cc2cccc(C)c2[nH]1)c1ccccc1` (stereo not shown) [compound 701], the pIC50 was 4.16.

Turning to `Cc1oncc1CNC(=O)c1cc2cccc(C)c2[nH]1` [compound 702], the pIC50 was 4.16.

As to `Cc1cccc2cc(C(=O)N[C@H](CO)c3ccccc3)[nH]c12` [compound 703], the pIC50 was 4.15.

Turning to `Cc1cccc2cc(C(=O)NC3CCC(=O)Nc4ccccc43)[nH]c12` (stereo not shown) [compound 704], the pIC50 was 4.15. To `Cc1cccc2cc(C(=O)NC(CO)c3ccccc3)[nH]c12` (stereo not shown) [compound 705] belongs 4.15; to `NC1CCC(NC(=O)c2cc3cccc(Br)c3[nH]2)CC1` (stereo not shown) [compound 706], 4.14.

As for `COC(=O)CC(NC(=O)c1cc2cccc(C)c2[nH]1)c1cccc(F)c1` (stereo not shown) [compound 707], the pIC50 is 4.14. To `COC(=O)C[C@H](NC(=O)c1cc2cccc(C)c2[nH]1)C(=O)OC` [compound 708] belongs 4.13; to `Cc1cccc2cc(C(=O)NCc3cccc(CN4CCOCC4)c3)[nH]c12` [compound 709], 4.11; to `Cc1cccc2cc(C(=O)NCc3cn4ccnc4cn3)[nH]c12` [compound 710], 4.08. To `CCc1c(C(=O)N[C@H]2CC[C@H](NC(=O)CCN)CC2)[nH]c2c(C)cccc12` [compound 711] belongs 4.07; to `Cc1cccc2cc(C(=O)NC(C)c3ccn(C)n3)[nH]c12` (stereo not shown) [compound 712], 4.06; to `Cc1cccc([C@@H](C)NC(=O)c2cc3cccc(C)c3[nH]2)c1` [compound 713], 4.04. Regarding `Cc1cccc2cc(C(=O)NC(C)c3cccc4ccccc34)[nH]c12` (stereo not shown) [compound 714], the pIC50 was 4.00.
